Reference: PMC165446 (BMC Microbiology, 2003)

Target: T1, methionine adenosyltransferase (MAT; S-adenosylmethionine synthetase) (Mycolicibacterium smegmatis, UniProt A0QWT3)
T1 sequence (A0QWT3 1-399): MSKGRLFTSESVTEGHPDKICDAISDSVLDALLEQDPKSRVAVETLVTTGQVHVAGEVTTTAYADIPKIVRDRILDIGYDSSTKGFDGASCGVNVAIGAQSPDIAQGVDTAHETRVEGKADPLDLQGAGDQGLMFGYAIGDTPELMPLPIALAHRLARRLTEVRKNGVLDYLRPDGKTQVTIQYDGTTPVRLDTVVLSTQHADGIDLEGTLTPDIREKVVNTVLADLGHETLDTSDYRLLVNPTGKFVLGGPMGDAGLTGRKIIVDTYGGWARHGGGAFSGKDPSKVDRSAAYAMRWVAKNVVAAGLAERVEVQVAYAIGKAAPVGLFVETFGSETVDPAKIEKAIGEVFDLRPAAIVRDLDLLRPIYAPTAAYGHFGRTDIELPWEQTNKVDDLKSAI
Test: HPLC assay of SAM formation, Dixon plots with varied ATP
Type: biochemical

Row | Compound | Ki
1 | Nc1nc2nn[nH]c2c(=O)[nH]1 [8-azaguanine] | 4.7 ± 0.77 mM
2 | Cn1cnc([N+](=O)[O-])c1Sc1ncnc2nc[nH]c12 [azathioprine] | 3.74 ± 1 mM
